Source: patent US8283373B2, “Inhibitors of cytosolic phospholipase A2” (Pfizer Inc., priority 2005, dated 2012)

How the values were obtained:
[1] = tested on: primary cerebellar granule neurons; assay: Oxygen-glucose deprivation (OGD) in cultured cerebellar granule neurons; assay type: cell-based, rat; settings: for percent cell death (lactate dehydrogenase release), Avg.: OGD 2 hours, control 14, OGD 51
Experimental: Primary cerebellar granule neurons were isolated from P5-8 rat pups. Briefly, cerebelli were collected and pooled in ice-cold phosphate buffer saline (PBS) without Ca^2+ and Mg^2+. The tissue was finely chopped and transferred to an enzymatic dissociation media containing 20 IU/ml papain in Earle's balanced salt solution (Worthington Biochemical, Freehold, N.J.) and incubated for 30 minutes at 37° C. After enzymatic dissociation, the papain solution was aspirated and the tissue mechanically triturated with a fire-polished Pasteur pipette in complete media [Neurobasal Medium with B-27 supplement (Gibco, Grand Island, N.Y.), penicillin/streptomycin, aphidicolin, glutamate, potassium chloride] containing 2,000 IU/ml DNase and 10 mg/ml ovomucoid protease inhibitor. Single-cell suspensions in complete media were plated on pre-coated poly-L-ornithine/laminin 24-well plates (Becton-Dickinson, Bedford, Mass.) at a density of
5.0×10^5 cells/well. Cells were maintained for two weeks prior to experimentation.
Cultures were treated with Compound A at various concentrations, 60 minutes before OGD. Media was removed and replaced with deoxygenated buffer in an anaerobic chamber (80% nitrogen, 10% hydrogen, 10% carbon dioxide gas mixture). Fresh Compound A, Example 34 or Example 41 was added to the cultures and maintained in the anaerobic chamber for 2 hours. At the end of the incubation, fresh media was exchanged and fresh Compound A was added. Cultures were maintained for an additional 24 hours in a normoxic incubator. Cell death was determined by measuring lactate dehydrogenase release into the media 24 hours later (Roche Biochemicals). In the table below, values are shown for the control, OGD, various concentrations of Compound A, and MK801, a NMDA receptor antagonist, which is a positive control.

cPLA2α = target: T1, cPLA2α (Homo sapiens, UniProt P47712); assay: GLU Micelle Assay; assay type: biochemical
T1 sequence (P47712 1-749): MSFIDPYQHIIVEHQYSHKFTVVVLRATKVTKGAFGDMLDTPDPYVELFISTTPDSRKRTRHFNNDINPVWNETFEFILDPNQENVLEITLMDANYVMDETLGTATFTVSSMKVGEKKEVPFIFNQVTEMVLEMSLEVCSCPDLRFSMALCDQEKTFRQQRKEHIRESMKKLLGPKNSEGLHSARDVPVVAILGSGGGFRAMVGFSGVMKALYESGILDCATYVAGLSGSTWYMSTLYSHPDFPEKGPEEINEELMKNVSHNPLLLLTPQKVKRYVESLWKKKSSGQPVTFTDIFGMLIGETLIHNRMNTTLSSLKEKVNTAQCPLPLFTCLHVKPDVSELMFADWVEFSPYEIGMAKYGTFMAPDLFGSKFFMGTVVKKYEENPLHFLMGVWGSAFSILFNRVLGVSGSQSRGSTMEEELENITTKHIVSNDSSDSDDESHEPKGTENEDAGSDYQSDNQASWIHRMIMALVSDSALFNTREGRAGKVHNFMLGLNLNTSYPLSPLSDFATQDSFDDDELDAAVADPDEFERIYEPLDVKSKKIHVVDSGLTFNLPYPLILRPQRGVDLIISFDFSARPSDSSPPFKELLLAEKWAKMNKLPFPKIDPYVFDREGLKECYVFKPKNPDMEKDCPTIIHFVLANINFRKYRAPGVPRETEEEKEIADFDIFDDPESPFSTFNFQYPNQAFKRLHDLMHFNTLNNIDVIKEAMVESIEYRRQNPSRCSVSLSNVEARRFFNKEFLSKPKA
Experimental: The assay was carried in a 96-well format using a fluorescent plate reader with a 355 nm excitation filter and a 460 nm emission filter (Lab Systems Fluoroscan II, Helsinki, Finland). The assay buffer contained 940 μM Triton X-100, 50 mM Hepes pH 7.4, 0.3 mM EDTA, 1 mM CaCl2 and 300 mM KCl. DTPC (1,2-O-tetradecyl-sn-glycero-3-phosphocholine, Avanti) at a final concentration of 120 μM was added the day of the experiment and GLU (7-Hydroxycoumarinyl-γ-linolenate, Biomol Research Lab, Inc.) at a final concentration of 90 μM was added immediately prior to each assay.
Compounds (10 μL) dissolved in DMSO were placed in duplicate wells of a black 96-well plate. Wells corresponding to the positive and negative controls contained DMSO without inhibitors. Just prior to the experiment, 200 μL assay buffer containing 90 μM GLU and 120 μM DTPC was added to all wells in the assay plate. Assay buffer (50 μL) was added to the negative, and 50 μL cPLA2α solution ([…] in assay buffer) was added to all other wells to initiate the reaction. The final concentration of enzyme was 1 μg/ml. The content of each well was mixed gently during the addition of the enzyme, and the plate was rapidly transferred to the fluorescent plate reader. The increase in fluorescence was read every 4 min for 84 min. The slope of the resulting line was determined and the inhibition was calculated using the equation below: Percent Inhibition=[1−(slope with inhibitor−slope negative control)/(slope positive control−slope negative control)]×100 Rat Whole Blood Assay

TXB2 = assay: Rat Whole Blood Assay (A23187-stimulated TXB2); assay type: cell-based; settings: Rattus norvegicus; A23187 5 μM
Experimental: Fresh blood was collected in heparinized tubes by cardiac puncture of male Sprague-Dawley rats. Aliquots of blood (0.6 mL) were incubated with either 6 μL solvent (DMSO), or 6 μL of test compounds at various concentrations for 15 minutes at 37° C. This was followed by incubation of the blood with 6 μL of calcium ionophore, A23187 (Sigma C-7522) diluted in DMSO for 10 min at 37° C. The final concentration of A23187 was 5 μM. DMSO (6 μL) was added in the unstimulated controls. The reactions were stopped by mixing 60 μL cold EDTA to give a final concentration of 20 mM. The blood was centrifuged at 6,500 rpm for 10 min on a microcentrifuge to obtain plasma. A 70 μL aliquot of plasma was mixed with 400 μL cold methanol for protein precipitation. After incubation at −80° C. for 30 min, the supernatant was obtained by centrifuging at 6,500 rpm for 10 min, and was assayed for TXB2 according to the manufacturer's procedure (Assay Designs, Inc.'s ELISA kit #900-002).

SMILES: O=C(O)c1ccc(CCCc2c(CCNS(=O)(=O)Cc3ccccc3-c3cccc4cccnc34)n(C(c3ccccc3)c3ccccc3)c3ccc(Cl)cc23)cc1 [Example 34, 4-{3-[5-chloro-1-(diphenylmethyl)-2-(2-{[(2-quinolin-8-ylbenzyl)sulfonyl]amino}ethyl)-1H-indol-3-yl]propyl}benzoic acid]
- protection of cultured neurons from OGD-induced cell death [1]: effective in protecting cultured neurons from OGD-induced cell death
- percent cell death (lactate dehydrogenase release), Avg. ([1]; 0.1 μM): 35%
- percent cell death (lactate dehydrogenase release), Avg. ([1]; 0.3 μM): 28%
- percent cell death (lactate dehydrogenase release), Avg. ([1]; 1 μM): 21%
- percent cell death (lactate dehydrogenase release), Avg. ([1]; 3 μM): 18%
- IC50 (cPLA2α): 16 nM
- IC50 (TXB2): 30 nM
